Assay results taken from PMC12115342, “Preparation and Evaluation of Tadalafil-Loaded Nanoemulgel for Transdermal Delivery in Cold-Induced Vasoconstriction: A Potential Therapy for Raynaud’s Phenomenon” (Pharmaceutics, 2025).
≈ marks a conversion by molar mass, not a printed value. Read-outs that look alike come from different tables or passages of the source.

Assays:
[1] = cited from earlier work
[2] = cited from earlier work; remark: listed apart in the source
[3] = Equilibrium solubility of TDL in oils, surfactants and cosurfactants; format: physicochemical
Description: The equilibrium solubility of TDL in selected oils was measured by adding an excess quantity of the drug to 1 mL of oils (Miglyol® 812 N, Miglyol® 840, Miglyol® 829, triacetin, isopropyl myristate, castor oil, oleic acid, cinnamon oil, N-methyl pyrrolidone) separately in 1.5 mL stoppered glass vials and mixed by a vortex mixer. Samples were further placed at room temperature (25 ± 1 °C) on a shaker (Incu-Shaker, Benchmark Scientific, Edison, NJ, USA) at 180 rpm for 72 h. The mixture was further centrifuged for 15 min at 3000 rpm. The upper supernatant was removed, and the amount of drug was determined using UV analyzer (Jenway, Staffs, UK) at a lambda max of 284 nm. The data presented in Table 1 are the mean values and standard deviations (SDs) for each oil sample, based on three replicates.
The solubility screening of TDL in various surfactants (Tween 80, Span 80, Cremophor RH 40, PEG-400, propylene glycol, isopropyl alcohol, and Transcutol) was performed following the same procedure as the oil screening. The results presented in the article are the mean values and standard deviations (SDs) for surfactant and cosurfactant samples, based on three replicates.

[4] = set-up: method as in doi:10.1016/j.jddst.2022.103166; settings: cited from earlier work

SMILES: CN1CC(=O)N2[C@H](c3ccc4c(c3)OCO4)c3[nH]c4ccccc4c3C[C@@H]2C1=O [Tadalafil]
- water solubility [1]: 3.2 µg/mL (≈ 8.22 µM)
- solubility in water ([1]; lower literature value): 0.73 µg/mL (≈ 1.87 µM)
- solubility in water ([1]; upper literature value): 3.48 µg/mL (≈ 8.94 µM)
- half-life [2]: 15 to 17 h
- solubility at 72 h ([3]; 25 °C, oil or lipid, thermodynamic from solid, in Castor oil, 25 ± 1 °C, 72 h): 450 ± 30 µg/mL (≈ 1160 µM)
- solubility at 72 h ([3]; 25 °C, oil or lipid, thermodynamic from solid, in Cinnamon oil, 25 ± 1 °C, 72 h): 53600 ± 2580 µg/mL (≈ 138000 µM)
- solubility at 72 h ([3]; 25 °C, oil or lipid, thermodynamic from solid, in Miglyol 812N, 25 ± 1 °C, 72 h): 330 ± 10 µg/mL (≈ 847 µM)
- solubility at 72 h ([3]; 25 °C, oil or lipid, thermodynamic from solid, in Miglyol 829, 25 ± 1 °C, 72 h): 910 ± 140 µg/mL (≈ 2340 µM)
- solubility at 72 h ([3]; 25 °C, oil or lipid, thermodynamic from solid, in Miglyol 840, 25 ± 1 °C, 72 h): 290 ± 10 µg/mL (≈ 745 µM)
- solubility at 72 h ([3]; 25 °C, oil or lipid, thermodynamic from solid, in Oleic acid, 25 ± 1 °C, 72 h): 190 ± 10 µg/mL (≈ 488 µM)
- solubility at 72 h ([3]; 25 °C, oil or lipid, thermodynamic from solid, in Triacetin, 25 ± 1 °C, 72 h): 3830 ± 70 µg/mL (≈ 9840 µM)
- solubility at 72 h ([3]; 25 °C, organic solvent or mixture, thermodynamic from solid, in Isopropyl alcohol): 510 ± 10 µg/mL (≈ 1310 µM)
- solubility at 72 h ([3]; 25 °C, organic solvent or mixture, thermodynamic from solid, in PEG-400): 14000 ± 1010 µg/mL (≈ 35900 µM)
- solubility at 72 h ([3]; 25 °C, organic solvent or mixture, thermodynamic from solid, in Propylene glycol): 840 ± 50 µg/mL (≈ 2160 µM)
- solubility at 72 h ([3]; 25 °C, organic solvent or mixture, thermodynamic from solid, in Transcutol): 33400 ± 1320 µg/mL (≈ 85700 µM)
- solubility at 72 h ([3]; 25 °C, thermodynamic from solid, in Cremophor RH 40): 27600 ± 1230 µg/mL (≈ 70800 µM)
- solubility at 72 h ([3]; 25 °C, thermodynamic from solid, in N-methyl pyrrolidone, 25 ± 1 °C, 72 h): 325000 ± 4560 µg/mL (≈ 835000 µM)
- solubility at 72 h ([3]; 25 °C, thermodynamic from solid, in Span 80): 170 ± 30 µg/mL (≈ 437 µM)
- solubility at 72 h ([3]; 25 °C, thermodynamic from solid, in Tween 80): 280 ± 10 µg/mL (≈ 719 µM)
- solubility at 72 h ([3]; in Cremophor RH 40): ~27600 µg/mL (≈ 70800 µM)
- solubility at 72 h ([3]; in Transcutol): ~33400 µg/mL (≈ 85700 µM)
- log p [4]: 2.89

SMILES: CCCc1nn(C)c2c(=O)[nH]c(-c3cc(S(=O)(=O)N4CCN(C)CC4)ccc3OCC)nc12 [sildenafil]
- half-life [2]: 3.8 h
